Measured values: ChEMBL document CHEMBL4265944, “Novel amide derivatives of 1,3-dimethyl-2,6-dioxopurin-7-yl-alkylcarboxylic acids as multifunctional TRPA1 antagonists and PDE4/7 inhibitors: A new approach for the treatment of pain” (Eur J Med Chem, 2018)
Calls of active or inactive are those of the source. The calls are words filed in the database; no cut-off is given here.

How the values were obtained:
[1] = molecular target: Transient receptor potential cation channel subfamily A member 1 (Homo sapiens) (UniProt O75762); experiment: Antagonist activity at human TRPA1 expressed in HEK293 cells assessed as decrease in flufenamic acid-evoked increase in intracellular calcium level at 100 uM measured for 180 secs with 1 sec interval by Fluo4-AM dye-based fluorescence assay relative to control; assay type: cell-based
Chain of Transient receptor potential cation channel subfamily A member 1 (Homo sapiens) (O75762 whole entry): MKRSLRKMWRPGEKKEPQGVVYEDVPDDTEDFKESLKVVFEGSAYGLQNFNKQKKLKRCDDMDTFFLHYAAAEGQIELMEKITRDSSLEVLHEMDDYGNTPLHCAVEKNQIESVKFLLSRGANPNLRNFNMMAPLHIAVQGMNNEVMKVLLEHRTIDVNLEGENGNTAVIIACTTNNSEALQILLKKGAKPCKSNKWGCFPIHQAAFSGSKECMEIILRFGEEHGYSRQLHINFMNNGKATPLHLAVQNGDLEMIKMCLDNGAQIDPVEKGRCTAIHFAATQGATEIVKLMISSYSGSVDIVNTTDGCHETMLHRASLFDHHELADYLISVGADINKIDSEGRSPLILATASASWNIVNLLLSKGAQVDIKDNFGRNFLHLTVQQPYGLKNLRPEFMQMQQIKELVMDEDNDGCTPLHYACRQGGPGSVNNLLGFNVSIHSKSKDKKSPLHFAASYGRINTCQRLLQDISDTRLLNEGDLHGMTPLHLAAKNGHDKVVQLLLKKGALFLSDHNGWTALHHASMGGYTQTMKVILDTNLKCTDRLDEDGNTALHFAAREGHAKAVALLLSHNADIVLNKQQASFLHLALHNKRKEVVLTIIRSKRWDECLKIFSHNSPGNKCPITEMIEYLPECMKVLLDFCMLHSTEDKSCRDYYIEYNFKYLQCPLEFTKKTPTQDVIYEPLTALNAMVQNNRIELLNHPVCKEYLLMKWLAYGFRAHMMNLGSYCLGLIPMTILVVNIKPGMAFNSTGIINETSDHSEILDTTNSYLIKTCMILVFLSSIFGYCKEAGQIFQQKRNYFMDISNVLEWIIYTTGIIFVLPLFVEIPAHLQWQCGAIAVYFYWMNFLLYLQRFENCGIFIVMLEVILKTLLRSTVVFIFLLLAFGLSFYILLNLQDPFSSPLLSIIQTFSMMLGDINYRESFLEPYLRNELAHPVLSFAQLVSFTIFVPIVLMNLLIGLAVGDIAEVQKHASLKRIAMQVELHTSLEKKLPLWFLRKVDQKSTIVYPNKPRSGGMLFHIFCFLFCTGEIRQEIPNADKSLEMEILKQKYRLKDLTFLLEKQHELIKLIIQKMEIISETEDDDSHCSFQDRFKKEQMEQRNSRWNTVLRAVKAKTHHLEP

[2] = molecular target: High affinity 3',5'-cyclic-AMP phosphodiesterase 7A (Homo sapiens, UniProt Q13946); experiment: Inhibition of recombinant human PDE7A using cAMP as substrate after 10 mins by PDE-Glo Phosphodiesterase Assay
Chain of High affinity 3',5'-cyclic-AMP phosphodiesterase 7A (Q13946 whole entry): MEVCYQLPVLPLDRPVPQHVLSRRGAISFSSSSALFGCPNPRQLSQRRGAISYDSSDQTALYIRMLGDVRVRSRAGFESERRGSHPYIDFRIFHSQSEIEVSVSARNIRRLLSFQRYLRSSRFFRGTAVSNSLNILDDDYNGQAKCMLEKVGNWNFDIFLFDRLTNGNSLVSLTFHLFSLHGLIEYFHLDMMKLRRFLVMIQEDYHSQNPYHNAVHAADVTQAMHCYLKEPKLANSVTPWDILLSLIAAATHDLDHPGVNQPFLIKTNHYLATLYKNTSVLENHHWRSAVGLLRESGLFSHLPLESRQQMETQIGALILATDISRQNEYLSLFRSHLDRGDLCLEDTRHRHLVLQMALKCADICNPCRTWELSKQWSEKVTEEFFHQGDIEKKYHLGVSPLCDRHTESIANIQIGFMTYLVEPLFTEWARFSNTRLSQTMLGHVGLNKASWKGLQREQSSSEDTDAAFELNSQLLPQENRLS

[3] = molecular target: 3',5'-cyclic-AMP phosphodiesterase 4B (Homo sapiens, UniProt Q07343); experiment: Inhibition of recombinant human PDE4B using cAMP as substrate after 10 mins by PDE-Glo Phosphodiesterase Assay
Chain of 3',5'-cyclic-AMP phosphodiesterase 4B (Q07343 whole entry): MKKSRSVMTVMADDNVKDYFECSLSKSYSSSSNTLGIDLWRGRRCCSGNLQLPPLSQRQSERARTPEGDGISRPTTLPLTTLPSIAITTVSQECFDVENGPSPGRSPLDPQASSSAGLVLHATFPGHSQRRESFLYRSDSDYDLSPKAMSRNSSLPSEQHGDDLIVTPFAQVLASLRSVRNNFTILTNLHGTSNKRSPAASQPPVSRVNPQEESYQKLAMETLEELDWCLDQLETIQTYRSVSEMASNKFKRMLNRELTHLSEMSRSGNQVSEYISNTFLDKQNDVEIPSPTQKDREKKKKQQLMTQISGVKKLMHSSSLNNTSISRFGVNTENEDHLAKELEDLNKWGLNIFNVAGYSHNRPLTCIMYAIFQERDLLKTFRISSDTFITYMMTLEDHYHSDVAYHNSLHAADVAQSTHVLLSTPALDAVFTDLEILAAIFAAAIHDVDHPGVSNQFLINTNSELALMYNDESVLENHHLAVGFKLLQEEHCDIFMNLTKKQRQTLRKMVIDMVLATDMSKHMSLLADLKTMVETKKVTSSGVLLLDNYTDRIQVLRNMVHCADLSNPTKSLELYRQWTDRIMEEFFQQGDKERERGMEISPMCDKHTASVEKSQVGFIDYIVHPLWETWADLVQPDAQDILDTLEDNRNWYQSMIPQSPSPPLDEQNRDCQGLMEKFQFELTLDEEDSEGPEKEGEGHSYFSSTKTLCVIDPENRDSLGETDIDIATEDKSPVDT

Rattus norvegicus [4] = experiment: Antiallodynic activity in Wistar rat assessed as reduction in oxaliplatin-induced neuropathic pain in late phase by measuring paw withdrawal force at 5 to 10 mg/kg, ip measured after 60 mins by Von Frey test; assay type: functional, organism-based
Rattus norvegicus [5] = experiment: Antiallodynic activity in Wistar rat assessed as reduction in oxaliplatin-induced neuropathic pain in early phase by measuring paw withdrawal force at 5 to 10 mg/kg, ip measured after 60 mins by Von Frey test; assay type: functional, organism-based
[6] = molecular target: Transient receptor potential cation channel subfamily A member 1 (Homo sapiens) (UniProt O75762); experiment: Antagonist activity at human TRPA1 expressed in HEK293 cells assessed as decrease in flufenamic acid-evoked increase in intracellular calcium level at 10 uM measured for 180 secs with 1 sec interval by Fluo4-AM dye-based fluorescence assay relative to control; assay type: cell-based
[7] = molecular target: Transient receptor potential cation channel subfamily A member 1 (Homo sapiens) (UniProt O75762); experiment: Antagonist activity at human TRPA1 expressed in HEK293 cells assessed as decrease in flufenamic acid-evoked increase in intracellular calcium level at 1 uM measured for 180 secs with 1 sec interval by Fluo4-AM dye-based fluorescence assay relative to control; assay type: cell-based
Rattus norvegicus [8] = experiment: Anti-inflammatory activity in Wistar rat assessed as inhibition of carrageenan-induced paw edema at 20 mg/kg, ip measured at 2 hrs post dose relative to control; assay type: functional
Rattus norvegicus [9] = experiment: Anti-inflammatory activity in Wistar rat assessed as inhibition of carrageenan-induced paw edema at 20 mg/kg, ip measured at 3 hrs post dose relative to control; assay type: functional
Rattus norvegicus [10] = experiment: Anti-inflammatory activity in Wistar rat assessed as inhibition of carrageenan-induced paw edema at 20 mg/kg, ip measured at 1 hr post dose relative to control; assay type: functional
Mus musculus [11] = experiment: Antiinflammatory activity in formalin-induced nociception Swiss CD-1 mouse model assessed as time spent on licking or biting formalin injected right hind paw […] at 5 mg/kg, ip measured during phase 2 (reference value: 83.63 +/- 12.98 sec); assay type: functional
Mus musculus [12] = experiment: Antiinflammatory activity in formalin-induced nociception ip dosed Swiss CD-1 mouse model assessed as time spent on licking or biting formalin injected right hind paw […] measured during phase 2; assay type: functional; conditions: Swiss CD-1, ip
Rattus norvegicus [13] = experiment: Antiallodynic activity in Wistar rat assessed as reduction in oxaliplatin-induced neuropathic pain in late phase by measuring paw withdrawal latency time at 1 mg/kg, ip measured after 60 secs by cold plate test; assay type: functional, organism-based
Rattus norvegicus [14] = experiment: Antiinflammatory activity in Wistar rat assessed as inhibition of LPS-induced TNF-alpha level at 50 mg/kg, ip measured at 1 to 2 hrs post dose by ELISA relative to control; assay type: functional
Mus musculus [15] = experiment: Antiinflammatory activity in formalin-induced nociception Swiss CD-1 mouse model assessed as time spent on licking or biting formalin injected right hind paw during neurogenic phase at 10 mg/kg, ip measured during phase 1 (reference value: 33 +/- 1.45 sec); assay type: functional
Rattus norvegicus [16] = experiment: Antiallodynic activity in Wistar rat assessed as reduction in oxaliplatin-induced neuropathic pain in early phase by measuring paw withdrawal force at 10 mg/kg, ip measured after 60 mins by Von Frey test; assay type: functional, organism-based
Mus musculus [17] = experiment: Potency index, ratio of ED50 for HC-030031 to test compound ED50 for formalin-induced nociception ip dosed Swiss CD-1 mouse model assessed as time spent on licking or biting formalin injected right hind paw […] measured during phase 2; assay type: functional
Mus musculus [18] = experiment: Antiinflammatory activity in formalin-induced nociception Swiss CD-1 mouse model assessed as time spent on licking or biting formalin injected right hind paw during […] phase at 10 mg/kg, ip measured during phase 2 (reference value: 83.63 +/- 12.98 sec); assay type: functional
[19] = Plasma concentration in Wistar rat model of LPS-induced inflammation at 50 mg/kg, ip measured at 1 hr post dose by HPLC method; assay type: ADME, organism-based
[20] = Plasma concentration in Wistar rat model of LPS-induced inflammation at 50 mg/kg, ip measured at 2 hrs post dose by HPLC method; assay type: ADME, organism-based
Mus musculus [21] = experiment: Antiinflammatory activity in formalin-induced nociception Swiss CD-1 mouse model assessed as time spent on licking or biting formalin injected right hind paw during neurogenic phase at 5 mg/kg, ip measured during phase 1 (reference value: 33 +/- 1.45 sec); assay type: functional
Mus musculus [22] = experiment: Antiinflammatory activity in formalin-induced nociception Swiss CD-1 mouse model assessed as time spent on licking or biting formalin injected right hind paw during […] phase at 2.5 mg/kg, ip measured during phase 2 (reference value: 83.63 +/- 12.98 sec); assay type: functional
Rattus norvegicus [23] = experiment: Antiallodynic activity in Wistar rat assessed as reduction in oxaliplatin-induced neuropathic pain in late phase by measuring paw withdrawal force at 10 mg/kg, ip measured after 60 mins by Von Frey test; assay type: functional, organism-based
[24] = Plasma concentration in Wistar rat model of LPS-induced inflammation at 50 mg/kg, ip measured at 1.5 hrs post dose by HPLC method; assay type: ADME, organism-based
Mus musculus [25] = experiment: Antiinflammatory activity in formalin-induced nociception Swiss CD-1 mouse model assessed as time spent on licking or biting formalin injected right hind paw during neurogenic phase at 2.5 mg/kg, ip measured during phase 1 (reference value: 33 +/- 1.45 sec); assay type: functional

| Compound | inhibition [1] [%] | IC50 [2] [µM] | IC50 [3] [µM] | also measured |
| --- | --- | --- | --- | --- |
| CCCOc1nc2c(c(=O)n(C)c(=O)n2C)n1CCCC(=O)Nc1ccc(C(C)C)cc1 | 11 | 37.6 | 17.8 |  |
| CC(C)C[C@H](CN)CC(=O)O |  |  |  | Activity (Rattus norvegicus [4]): Active; Activity (Rattus norvegicus [5]): Active |
| CCOc1nc2c(c(=O)n(C)c(=O)n2C)n1CC(=O)Nc1ccc(Cl)cc1 | 7 | > 200 | > 200 |  |
| COc1nc2c(c(=O)n(C)c(=O)n2C)n1CC(=O)NCc1ccccc1Cl | 3 | > 200 | > 200 |  |
| CCCOc1nc2c(c(=O)n(C)c(=O)n2C)n1CCCC(=O)Nc1ccc(C(C)(C)C)cc1 | 52 | 7.76 | 21.1 | inhibition [6]: 5%; inhibition [7]: 5% |
| CC(C(=O)O)c1cccc(C(=O)c2ccccc2)c1 (centres undefined) [KETOPROFEN] |  |  |  | inhibition in vivo at 20 mg/kg (Rattus norvegicus [8]): 54.2%; inhibition in vivo at 20 mg/kg (Rattus norvegicus [9]): 66%; inhibition in vivo at 20 mg/kg (Rattus norvegicus [10]): 23.3% |
| COc1nc2c(c(=O)n(C)c(=O)n2C)n1CCCC(=O)Nc1ccc(C(C)C)cc1 | 18 | > 200 | > 200 |  |
| COc1nc2c(c(=O)n(C)c(=O)n2C)n1CCCC(=O)Nc1ccc(Cl)cc1 | 15 | > 200 | > 200 |  |
| CCOc1nc2c(c(=O)n(C)c(=O)n2C)n1CC(=O)Nc1ccc(C(C)(C)C)cc1 | 59 | > 200 | > 200 | Time (Mus musculus [11]): 16.33 s; ED50 (Mus musculus [12]): 2.57 mg/kg; Activity (Rattus norvegicus [13]): Active; inhibition in vivo at 20 mg/kg (Rattus norvegicus [8]): 54.3%; inhibition (Rattus norvegicus [14]): inactive; Time (Mus musculus [15]): 32.17 s; Activity (Rattus norvegicus [16]): Active; inhibition [6]: 47%; Ratio ED50 (Mus musculus [17]): 10 - 13; Time (Mus musculus [18]): 9.67 s; inhibition [7]: 10%; inhibition in vivo at 20 mg/kg (Rattus norvegicus [9]): 50.1%; concentration at 1 h [19]: 3.75 µM; concentration at 2 h [20]: 2250 nM; Time (Mus musculus [21]): 30.83 s; Time (Mus musculus [22]): 46 s; inhibition in vivo at 20 mg/kg (Rattus norvegicus [10]): 60.5%; Activity (Rattus norvegicus [23]): Active; concentration at 1.5 h [24]: 2590 nM; Time (Mus musculus [25]): 32 s |
| CCOc1nc2c(c(=O)n(C)c(=O)n2C)n1CC(=O)Nc1ccc(C(C)C)cc1 | 20 | > 200 | > 200 |  |
| CCCOc1nc2c(c(=O)n(C)c(=O)n2C)n1CCCC(=O)Nc1ccc(C(C)CC)cc1 (centres undefined) | 5 | 9.06 | 16.8 |  |
